In ChEMBL document CHEMBL1130925, “Anti-AIDS agents. 33. Synthesis and anti-HIV activity of mono-methyl substituted 3',4'-di-O-(-)-camphanoyl-(+)-cis-khellactone (DCK) analogues” (Bioorg Med Chem Lett, 1998) one finds selectivity ratio, EC50 and IC50 data, which are given here for five compounds.

A short description of data set [1]: Compound was tested for anti HIV activity by measuring therapeutic index in H9 lymphocytes; IC50/EC50. It is filed as organism-based. The following applies: human immunodeficiency virus, H9 lymphocytes infected with HIV; read-out: TI.
The subject of data set [2] is H9. As to the kind of experiment: Compound was evaluated for anti-HIV activity in acutely infected H9 Lymphocytes. The class given is functional, cell-based. The following applies: Homo sapiens.
For data set [3], the system named is H9. Nature of the data set: Compound was evaluated for anti-HIV activity and the concentration that inhibits uninfected H9 cell growth by 50%. The conditions noted are these: Homo sapiens. It is filed as functional, cell-based.

A value given as a limit tells only on which side of the number the result lay.

In the case of `Cc1cc2ccc(=O)oc2c2c1OC(C)(C)[C@H](OC(=O)C13CCC(C)(C(=O)O1)C3(C)C)[C@@H]2OC(=O)C12CCC(C)(C(=O)O1)C2(C)C` (stereo not given in full), the selectivity ratio in data set [1] was found to be 220. In addition, the EC50 in the data set on H9 [2] turned out to be 150 nM. For the same compound, in the data set with H9 [3], the IC50 came to 33000 nM.

Consider `Cc1cc2ccc3c(c2oc1=O)[C@@H](OC(=O)C12CCC(C)(C(=O)O1)C2(C)C)[C@@H](OC(=O)C12CCC(C)(C(=O)O1)C2(C)C)C(C)(C)O3` (stereo not given in full), for which the EC50 with H9 [2] worked out at 0.000157 nM. Further, the IC50 in the data set with H9 [3] is above 157000 nM.

In turn, `Cc1cc(=O)oc2c3c(ccc12)OC(C)(C)[C@H](OC(=O)C12CCC(C)(C(=O)O1)C2(C)C)[C@@H]3OC(=O)C12CCC(C)(C(=O)O1)C2(C)C` (stereo not given in full) yielded an EC50 in the data set on H9 [2] of 0.000157 nM. In the data set with H9 [3], this compound registered an IC50 above 157000 nM.

`CC1(C)Oc2ccc3ccc(=O)oc3c2[C@@H](OC(=O)C23CCC(C)(C(=O)O2)C3(C)C)[C@H]1OC(=O)C12CCC(C)(C(=O)O1)C2(C)C` (stereo not given in full): the selectivity ratio in data set [1] came out at 137000.

With `Cc1cc2c(c3oc(=O)ccc13)[C@@H](OC(=O)C13CCC(C)(C(=O)O1)C3(C)C)[C@@H](OC(=O)C13CCC(C)(C(=O)O1)C3(C)C)C(C)(C)O2` (stereo not given in full), in the data set with H9 [2], the EC50 worked out at 0.000423 nM. The same compound showed an IC50 in the data set on H9 [3] above 157000 nM.
